Results on 31 compounds are retold here after patent publication US20220056043A1, “NITROGEN-CONTAINING FUSED CYCLIC COMPOUND, PREPARATION METHOD THEREFOR AND USE THEREOF” (SICHUAN KELUN-BIOTECH BIOPHARMACEUTICAL CO., LTD., priority 2019, published 2022).

Test [1] addresses T1, hNLRP3 inflammasome (Homo sapiens, UniProt Q96P20).
T1 construct: endogenous in cells; host or cells: THP-1 cells, PMA-differentiated
Kind of test: Agonistic effect on the expression of IL-1β in THP-1 cells after PMA-induced differentiation (HTRF). The following applies: IL-1β level, PMA-differentiated THP-1 cells, 6 hours. In kind it is cell-based. The text has this:
Experimental Example 1: Agonistic Effect of the Compound of the Invention on the Expression of IL-1β in THP-1 Cells after PMA-Induced Differentiation
In this test, a HTRF (homogeneous time-resolved fluorescence) detection method was used to test the effect of the compound of the invention on the level of downstream cytokine IL-1β of NLRP3 to evaluate the agonistic effect of the compound on hNLRP3 inflammasome or hNLRP3 inflammasome pathway at a cellular level.
Reagent: RPMI 1640 (Hyclone); heat-inactivated FBS (fetal bovine serum) (Gibco); PMA (phorbol myristal acetate) (Beyotime)
Kit: IL-1β assay kit (CISIO)
1) THP-1 cells in a logarithmic growth phase were seeded in a T75 culture flask at a density of 5×10^5 cells/well, and cultured in a cell incubator at 37° C., 5% CO2 for 24 hours, and then 1 μM PMA was used to induce THP-1 suspension cells to become adherent macrophages. The medium was RPMI 1640 containing 10% heat-inactivated FBS and 0.05 mM β-mercaptoethanol.
2) The cells were induced and cultured for 24 hours. Then the adherent cells were trypsinized and centrifuged at 1000 rpm for 5 min. The supernatant was removed, and the cells were resuspended to a density of 2×10^6 cells/mL in RPMI 1640 medium containing 2% heat-inactivated FBS. 50 μL/well of cell resuspension was taken and spread on a 96-well plate such that the number of cells in each well was 1×10^5.
3) An appropriate amount of 10 mM DMSO solution of the compound to be tested was taken and diluted to a concentration of 2× test concentration with RPMI 1640 medium containing 2% heat-inactivated FBS. 50 μL/well of the dilution was added to the cells in the 96-well plate, and mixed well. The plate was placed in a cell incubator at 37° C., 5% CO2 for 6 hours. The supernatant was collected, and the level of IL-1β was measured in accordance with the instructions of the IL-1β detection kit.
(§1) 4) EC50 was fitted by the GraphPad software log(agonist) vs. response—Variable slope four-parameter method.
A general note: TR-FRET usually uses a lanthanide donor and a delayed reading to cut background.

The subject of test [2] is THP1-defNLRP3 cells. Kind of test: Agonistic effect on the expression of IL-1β in NLRP3 deficient THP1 cells (THP1-defNLRP3) after PMA-induced differentiation (HTRF). The format is cell-based, human. The note with it: Homo sapiens, THP-1; IL-1β level, PMA-differentiated NLRP3 deficient THP1 cells, 6 hours; highest test concentration 30 μM; read-out: hNLRP3 EC50 (μM) (THP-1defNLRP3).
From the text: Experimental Example 2: Agonistic Effect of the Compound of the Invention on the Expression of IL-1β in NLRP3 Deficient THP1 Cells (THP1-defNLRP3 Cells) after PMA-Induced Differentiation
In this test, a HTRF detection method was used to test the effect of the compound of the invention on the level of IL-1β in THP1-defNLRP3 cells to evaluate the specificity of the agonistic effect of the compound on hNLRP3 inflammasome or hNLRP3 inflammasome pathway.
Reagents: as described in Experimental Example 1
Cell: THP1-defNLRP3 (InvivoGen)
Kit: IL-1β assay kit (CISBIO)
1) THP1-defNLRP3 cells in a logarithmic growth phase were seeded in a T75 culture flask at a density of 5×10^5 cells/well, and cultured in a cell incubator at 37° C., 5% CO2 for 24 hours, and then 1 μM PMA was used to induce THP1-defNLRP3 suspension cells to become adherent macrophages. The medium was RPMI 1640 containing 10% heat-inactivated FBS and 0.05 mM β-mercaptoethanol.
2) The cells were induced and cultured for 24 hours. Then the adherent cells were trypsinized and centrifuged at 1000 rpm for 5 min. The supernatant was removed, and the cells were resuspended to a density of 2×10^6 cells/mL in RPMI 1640 medium containing 2% heat-inactivated FBS. 50 μL/well of the cell resuspension was taken and spread on a 96-well plate such that the number of cells in each well was 1×10^5.
3) An appropriate amount of 10 mM DMSO solution of the compound to be tested was taken and diluted to a concentration of 2× test concentration with RPMI 1640 medium containing 2% heat-inactivated FBS. 50 μL/well of the dilution was added to the cells in the 96-well plate, and mixed well. The plate was incubated in a cell incubator at 37° C., 5% CO2 for 6 hours. The supernatant was collected, and the level of IL-1β was measured in accordance with the instructions of the IL-1β detection kit.
as §1

T1 sequence (Q96P20 whole entry): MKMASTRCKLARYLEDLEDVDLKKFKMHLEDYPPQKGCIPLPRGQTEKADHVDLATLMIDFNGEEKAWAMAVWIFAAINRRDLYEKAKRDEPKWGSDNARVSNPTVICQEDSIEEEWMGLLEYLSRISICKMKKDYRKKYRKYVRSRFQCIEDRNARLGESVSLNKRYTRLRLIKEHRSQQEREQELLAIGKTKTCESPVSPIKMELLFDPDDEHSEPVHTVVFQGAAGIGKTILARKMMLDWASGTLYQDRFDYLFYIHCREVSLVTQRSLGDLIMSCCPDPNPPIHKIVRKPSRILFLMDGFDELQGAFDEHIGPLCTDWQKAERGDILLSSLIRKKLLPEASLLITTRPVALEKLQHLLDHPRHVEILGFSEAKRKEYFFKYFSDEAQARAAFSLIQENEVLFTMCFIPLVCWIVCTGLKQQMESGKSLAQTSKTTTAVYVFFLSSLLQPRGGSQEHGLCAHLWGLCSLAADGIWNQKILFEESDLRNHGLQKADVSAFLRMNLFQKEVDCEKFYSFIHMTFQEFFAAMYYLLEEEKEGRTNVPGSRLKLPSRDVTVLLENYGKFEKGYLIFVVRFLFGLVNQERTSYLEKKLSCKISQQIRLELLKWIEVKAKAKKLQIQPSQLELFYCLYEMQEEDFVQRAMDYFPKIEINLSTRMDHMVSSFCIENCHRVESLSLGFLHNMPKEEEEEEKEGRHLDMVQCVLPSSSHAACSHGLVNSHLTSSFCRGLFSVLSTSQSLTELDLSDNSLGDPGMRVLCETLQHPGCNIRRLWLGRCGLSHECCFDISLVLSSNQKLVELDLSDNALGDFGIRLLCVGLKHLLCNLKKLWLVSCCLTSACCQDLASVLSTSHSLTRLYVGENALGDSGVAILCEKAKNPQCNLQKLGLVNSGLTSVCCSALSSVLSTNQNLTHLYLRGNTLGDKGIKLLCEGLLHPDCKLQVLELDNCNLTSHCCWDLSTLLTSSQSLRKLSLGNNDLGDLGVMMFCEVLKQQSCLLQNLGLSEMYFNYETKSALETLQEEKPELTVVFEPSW

On to `CC(=O)NCCNc1cc(N)nc2cc(-c3ccn[nH]3)sc12` [Compound 52], for which the EC50 was 0.2 µM in test [1] and greater than 30 µM in test [2].

With `Nc1cc(NCCCNC(=O)C2CC2)c2sc(-c3ccn[nH]3)cc2n1` [Compound 58], the figures for the concentration giving a half-maximal response (EC50) in test [1] and in test [2] were 0.26 µM and greater than 30 µM, respectively.

On to `CCC(=O)N(C)CCNc1cc(N)nc2cc(-c3ccn[nH]3)sc12` [Compound 88, N-(2-((5-amino-2-(1H-pyrazol-5-yl)thieno[3,2-b]pyridin-7-yl)amino)ethyl)-N-methylpropionamide], for which the 50% effective concentration (EC50) in test [1] is 0.04 µM; in test [2], greater than 30 µM.

For the compound `CN1CC[C@H](Nc2cc(N)nc3cc(-c4ccn[nH]4)sc23)C1` [Compound 51, (S)—N^7-(1-methylpyrrolidin-3-yl)-2-(1H-pyrazol-5-yl)thieno[3,2-b]pyridine-5,7-diamine], the EC50 in test [1] was 0.33 µM; in test [2] it was greater than 30 µM.

With `Nc1cc(NC2CC(O)C2)c2sc(-c3ccn[nH]3)cc2n1` (centres unmarked) [Compound 40, 3-((5-amino-2-(1H-pyrazol-5-yl)thieno[3,2-b]pyridin-7-yl)amino)cyclobutanol], the half-maximal effective concentration (EC50) in test [1] is 0.39 µM; in test [2], greater than 30 µM.

With `Nc1cc(N2CC3CC(C2)N3C=O)c2sc(-c3ccn[nH]3)cc2n1` [Compound 179], the EC50 in test [1] was 0.05 µM; in test [2], greater than 30 µM.

With `Nc1cc(N2CCOCC2)c2sc(-c3ccn[nH]3)cc2n1` [Compound 170], the concentration giving a half-maximal response (EC50) in test [1] is 0.02 µM; in test [2], greater than 30 µM.

Turning to `Nc1cc(NCC(F)F)c2sc(-c3ccn[nH]3)cc2n1` [Compound 116, N^7-(2,2-difluoroethyl)-2-(1H-pyrazol-5-yl)thieno[3,2-b]pyridine-5,7-diamine], the EC50 was 0.03 µM in test [1] and greater than 30 µM in test [2].

On to `Cn1cc(-c2cc3nc(N)cc(NCCCO)c3s2)cn1` [Compound 109, 3-((5-amino-2-(1-methyl-1H-pyrazol-4-yl)thieno[3,2-b]pyridin-7-yl)amino)-1-propanol], for which the results for the half-maximal effective concentration (EC50) in test [1] and in test [2] were 4.48 µM and greater than 30 µM, respectively.

On to `Nc1cc(NCC2CC2)c2sc(-c3ccn[nH]3)cc2n1` [Compound 102, N^7-(cyclopropylmethyl)-2-(1H-pyrazol-5-yl)thieno[3,2-b]pyridine-5,7-diamine], for which the EC50 in test [1] was 0.01 µM; in test [2], greater than 30 µM.

Regarding `CO[C@H](C)CNc1cc(N)nc2cc(-c3ccn[nH]3)sc12` [Compound 101, (R)—N^7-(2-methoxypropyl)-2-(1H-pyrazol-5-yl)thieno[3,2-b]pyridine-5,7-diamine], the EC50 is 0.03 µM in test [1] and greater than 30 µM in test [2].

Take `CC(=O)NCCCNc1cc(N)nc2cc(-c3ccn[nH]3)sc12` [Compound 53]: the EC50 in test [1] is 0.18 µM; in test [2], greater than 30 µM.

Turning to `CN1CCC[C@@H](Nc2cc(N)nc3cc(-c4ccn[nH]4)sc23)C1` [Compound 104, (R)—N^7-(1-methylpiperidin-3-yl)-2-(1H-pyrazol-5-yl)thieno[3,2-b]pyridine-5,7-diamine], the EC50 in test [1] was 0.17 µM; in test [2] it was greater than 30 µM.

For `CN(CCNc1cc(N)nc2cc(-c3ccn[nH]3)sc12)C(=O)C1CC1` [Compound 75, N-(2-((5-amino-2-(1H-pyrazol-5-yl)thieno[3,2-b]pyridin-7-yl)amino)ethyl)-N-methylcyclopropionamide], the EC50 in test [1] was 0.11 µM; in test [2], greater than 30 µM.

On to `C[C@@H]1CN(CCNc2cc(N)nc3cc(-c4ccn[nH]4)sc23)C[C@H](C)O1` [Compound 117, N^7-(2-((2S,6R)-2,6-dimethylmorpholino)ethyl)-2-(1H-pyrazol-5-yl)thieno[3,2-b]pyridine-5,7-diamine], for which the concentration for a half-maximal effect (EC50) in test [1] is 0.27 µM; in test [2], greater than 30 µM.

In the case of `C[C@@H]1COCCN1c1cc(N)nc2cc(-c3ccn[nH]3)sc12` [Compound 177], the values for the EC50 in test [1] and in test [2] were 0.03 µM and greater than 30 µM, respectively.

With `CC(=O)N(C)CCCNc1cc(N)nc2cc(-c3ccn[nH]3)sc12` [Compound 74, N-(3-((5-amino-2-(1H-pyrazol-5-yl)thieno[3,2-b]pyridin-7-yl)amino)propyl)-N-methylacetamide], the EC50 is 0.26 µM in test [1] and greater than 30 µM in test [2].

For the compound `Nc1cc(N2CCN(C3CCCCC3)CC2)c2sc(-c3ccn[nH]3)cc2n1` [Compound 167], the EC50 was 0.01 µM in test [1] and greater than 30 µM in test [2].

Turning to `CC(C)N1CCN(c2cc(N)nc3cc(-c4ccn[nH]4)sc23)CC1` [Compound 162], the EC50 in test [1] is 0.01 µM; in test [2] it was greater than 30 µM.

Regarding `Nc1cc(N2CCN(C3CCCC3)CC2)c2sc(-c3ccn[nH]3)cc2n1` [Compound 160], the EC50 in test [1] was 0.11 µM; in test [2], greater than 30 µM.

In the case of `Nc1cc(NC2CCOC2)c2sc(-c3ccn[nH]3)cc2n1` (centres unmarked) [Compound 61, 2-(1H-pyrazol-5-yl)-N^7-(tetrahydrofuran-3-yl)thieno[3,2-b]pyridine-5,7-diamine], the half-maximal effective concentration (EC50) is 0.1 µM in test [1] and greater than 30 µM in test [2].

`CS(=O)(=O)N1CCN(c2cc(N)nc3cc(-c4ccn[nH]4)sc23)CC1` [Compound 164]: the EC50 in test [1] was 0.006 µM; in test [2], greater than 30 µM.

Take `Cc1c(-c2cc[nH]n2)sc2c(NCCCO)cc(N)nc12` [Compound 159]: the EC50 in test [1] was 1.29 µM; in test [2], greater than 30 µM.

`CC1CN(CCNc2cc(N)nc3cc(-c4ccn[nH]4)sc23)CC(C)O1` (centres unmarked) [Compound 62]: the EC50 in test [1] was 0.06 µM; in test [2], greater than 30 µM.

As for `Nc1cc(N2CCC(O)CC2)c2sc(-c3ccn[nH]3)cc2n1` [Compound 172], the EC50 in test [1] was 0.03 µM; in test [2], greater than 30 µM.

Turning to `Nc1cc(N[C@@H]2CC[C@H](O)C2)c2sc(-c3ccn[nH]3)cc2n1` [Compound 31, (1S,3R)-3-((5-amino-2-(1H-pyrazol-5-yl)thieno[3,2-b]pyridin-7-yl)amino)cyclopentanol], the concentration giving a half-maximal response (EC50) is 0.11 µM in test [1] and greater than 30 µM in test [2].

For `Nc1cc(N[C@@H]2CCC[C@@H]2O)c2sc(-c3ccn[nH]3)cc2n1` [Compound 96, (1S,2R)-2-((5-amino-2-(1H-pyrazol-5-yl)thieno[3,2-b]pyridin-7-yl)amino)cyclopentanol], the half-maximal effective concentration (EC50) is 0.07 µM in test [1] and greater than 30 µM in test [2].

Turning to `COCCNc1cc(N)nc2cc(-c3ccn[nH]3)sc12` [Compound 100, N^7-(2-methoxyethyl)-2-(1H-pyrazol-5-yl)thieno[3,2-b]pyridine-5,7-diamine], the concentration for a half-maximal effect (EC50) in test [1] is 0.03 µM; in test [2], greater than 30 µM.

As for `CC1(C)CN(c2cc(N)nc3cc(-c4ccn[nH]4)sc23)CCO1` [Compound 171], the values for the EC50 in test [1] and in test [2] were 0.03 µM and greater than 30 µM, respectively.

On to `Nc1cc(NC2CCCC2)c2sc(-c3ccn[nH]3)cc2n1` [Compound 110, N^7-cyclopentyl-2-(1H-pyrazol-5-yl)thieno[3,2-b]pyridine-5,7-diamine], for which the concentration giving a half-maximal response (EC50) in test [1] is 0.02 µM; in test [2], greater than 30 µM.

Take `N#CC1(CNc2cc(N)nc3cc(-c4ccn[nH]4)sc23)CC1` [Compound 119]: the EC50 was 0.01 µM in test [1] and greater than 30 µM in test [2].

The EC50 is the concentration at which the effect is half-maximal.
